Laboratory results from publication PMC6848382, “Characterization of the Bioactivity and Mechanism of Bactenecin Derivatives Against Food-Pathogens” (Frontiers in Microbiology, 2019).
Converted amounts (≈) assume the structure as drawn. Where two headings read alike, the source gives them in different places. Residues, ends and D or L forms follow the SMILES beside them. No end group written: not given here.

Assays:
[1] = system: Staphylococcus aureus CMCC26074; type: cell-based
Experimental: (§1) The antimicrobial activity of each peptide against food-pathogens was characterized by the minimum inhibitory concentration (MIC) ([Ma et al., 2013]). A logarithmic growth-phase culture of bacteria (1 × 10^6 CFU/mL) was mixed with peptide solutions (final concentration ranging from 0 μM to 256 μM) in 96-well plates. After the 96-well plates were incubated for 24 h at 37°C, optical dispersion (OD) was measured using a microplate reader (Bio-Rad, ıHercules, CA, United States) at 630 nm. […] The broth with bacteria cells was used as the negative control, and un-inoculated broth was used as a positive control. The tests were performed in triplicate using three replicates for each experiment.

[2] = system: Escherichia coli ATCC25922; type: cell-based; settings: for MIC, CaCl2 / MIC, Control / MIC, KCl / MIC, MgCl2 / MIC, NH4Cl / MIC, NaCl: ATCC25922, 24 h
Experimental: To evaluate the effect of different physiological conditions on the stability of peptides, we determined the salt stability, thermal stability, and enzymatic stability as described in a previous study ([Dong, 2013]; [Sun et al., 2018]). Escherichia coli ATCC25922 grown in the logarithmic phase (1 × 10^6 CFU/mL) was exposed to each peptide at different salt concentrations (150 mM NaCl, 4.5 mM KCl, 6 μM NH4Cl, 1 mM MgCl2, 8 μM ZnCl2, 2 mM CaCl2, and 4 μM FeCl3). The peptides were treated for 1 h at 100°C to test for thermal stability. The peptides were treated with trypsin, pepsin, papain and protease k at a concentration of 1 mg/mL for 1 h at 37°C to test for enzyme stability. The control group consisted of untreated peptides. The subsequent assay was consistent with the MIC assay.

[3] = system: Bacillus cereus CMCC6303; type: cell-based
Experimental: as §1

[4] = system: Salmonella pullorum C79-13; type: cell-based; settings: 24 h
Experimental: as §1

[5] = system: Salmonella typhimurium C77-31; type: cell-based
Experimental: as §1

[6] = system: Staphylococcus aureus ATCC25923; type: cell-based
Experimental: as §1

[7] = system: Cronobacter sakazakii ATCC29544; type: cell-based
Experimental: as §1

[8] = system: Escherichia coli ATCC25922; type: cell-based; settings: ATCC25922, 24 h
Experimental: as §1

[9] = system: EA. hy 926 cells; assay: Cytotoxicity (CCK-8); type: cell-based, human; settings: CCK-8, 24 h; for EA. hy 926 cell viability: peptide concentration 128 μM
Experimental: The cytotoxicity of the peptides was tested on the EA. hy 926 cell line by using the Cell Counting Kit-8 (CCK-8, Dojindo, Japan) as described in a previous study ([Sánchez-Gómez et al., 2015]). The EA. Hy 926 cells cultured in the logarithmic growth -phase was then diluted with PBS to a single cell suspension. A 100 μL cell suspension (2 × 10^5 cells) was added to 96-well plates and cultured in an incubator with a 5% CO2 atmosphere at 37°C. The cell culture medium was removed, and the two-fold serial dilutions of peptides prepared using DMEM with 5% FBS were added to the 96-well plates. After 24 h, 100 μL DMEM with 10% CCK-8 was added to the 96-well plates and then cultured for 4 h. The absorbance was measured at 492 nm by using a microplate reader. DMEM served as a positive control and cells mixed with DMEM without peptides as a negative control. Melittin was employed as a control peptide.

[10] = system: Salmonella typhimurium ATCC14028; type: cell-based
Experimental: as §1

[11] = system: Listeria monocytogenes CMCC54004; type: cell-based
Experimental: as §1

[12] = system: Escherichia coli UB1005; type: cell-based
Experimental: as §1

[13] = system: 12 typical food-pathogens; settings: over the 12 food-pathogens of Table 3
Experimental: as §1
The selectivity index (SI), calculated as the ratio of MHC to GM, was used a comparison parameter for the safety and efficacy of peptides.

[14] = system: Salmonella enteric-subspenterica CMCC47020; settings: 1 × 10^6 CFU/mL, 24 h, 37°C, triplicate
Experimental: as §1

[15] = system: Salmonella enteric-subspenterica CMCC50071; settings: 1 × 10^6 CFU/mL, 24 h, 37°C, triplicate
Experimental: as §1

[16] = Staphylococcus aureus CMCC26074, 1 × 10^6 CFU/mL, 24 h, 37°C, triplicate
[17] = E. coli ATCC25922, peptides treated with trypsin 1 mg/mL, 1 h, 37°C
[18] = Staphylococcus aureus ATCC25923, 1 × 10^6 CFU/mL, 24 h, 37°C, triplicate

Row | Compound | MIC ([1]; CMCC26074, 24 h) | MIC, Heat ([2]; ATCC25922, 1 h) | MIC, Papain ([2]; ATCC25922, 1 h) | MIC, Pepsin ([2]; ATCC25922, 1 h) | MIC, Proteinase k ([2]; ATCC25922, 1 h) | MIC, CaCl2 [2] | MIC, Control [2] | MIC, KCl [2] | MIC, MgCl2 [2] | MIC, NH4Cl [2] | MIC, NaCl [2] | MIC ([3]; CMCC6303, 24 h) | MIC [4] | MIC ([5]; murium C77-31, 24 h) | MIC ([6]; ATCC25923, 24 h) | MIC ([7]; ATCC29544, 24 h) | MIC [8] | EA. hy 926 cell viability [9] | MIC ([10]; ATCC14028, 24 h) | GM (geometric mean of MICs) [13] | other results
1 | CC[C@H](C)[C@@H]1NC(=O)[C@H](CCCNC(=N)N)NC(=O)[C@@H](NC(=O)[C@H](CC(C)C)NC(=O)[C@@H](N)CCCNC(=N)N)CSSC[C@@H](C(=O)N[C@@H](CCCNC(=N)N)C(N)=O)NC(=O)[C@H](C(C)C)NC(=O)[C@H](CCCNC(=N)N)NC(=O)[C@H]([C@@H](C)CC)NC(=O)[C@H](C(C)C)NC(=O)[C@H](C(C)C)NC1=O [L2C3V10C11, bactenecin] (HELM PEPTIDE1{R.L.C.R.I.V.V.I.R.V.C.R.[am]}$PEPTIDE1,PEPTIDE1,3:R3-11:R3$$$V2.0) | >256 µM | 8 µM (≈ 11.9 µg/mL) | 16 µM (≈ 23.7 µg/mL) | 16 µM (≈ 23.7 µg/mL) | 32 µM (≈ 47.5 µg/mL) | 8 µM (≈ 11.9 µg/mL) | 4 µM (≈ 5.93 µg/mL) | 4 µM (≈ 5.93 µg/mL) | 4 µM (≈ 5.93 µg/mL) | 4 µM (≈ 5.93 µg/mL) | 16 µM (≈ 23.7 µg/mL) | 64 µM (≈ 94.9 µg/mL) | >256 µM | >256 µM | >256 µM | 256 µM (≈ 380 µg/mL) | 4 µM (≈ 5.93 µg/mL) | – | – | – | MIC, Trypsin ([2]; ATCC25922, 1 h): 64 µM (≈ 94.9 µg/mL)
2 | RKRRIVVIRRKR-NH2 [K2R3R10K11] | – | 16 µM | 8 µM | 32 µM | 8 µM | 16 µM | 8 µM | 8 µM | 8 µM | 8 µM | 32 µM | 128 µM | – | – | – | – | 8 µM | 85% | 128 µM | 191.8 µM | MIC [1, 16]: >256 µM; MIC, Trypsin [2, 17]: >256 µM; MIC ([4]; Salmonella pullorum C79-13, 1 × 10^6 CFU/mL, 37°C, triplicate): 256 µM; MIC ([5]; Salmonella typhimurium C77-31, 1 × 10^6 CFU/mL, 24 h, 37°C, triplicate): >256 µM; MIC ([11]; CMCC54004, 24 h): 32 µM; MIC ([12]; Escherichia coli UB1005, 1 × 10^6 CFU/mL, 24 h, 37°C, triplicate): 256 µM; MIC [6, 18]: >256 µM; MIC ([7]; Cronobacter sakazakii ATCC29544, 1 × 10^6 CFU/mL, 24 h, 37°C, triplicate): >256 µM
3 | RKWRIVVIRVRR-NH2 [K2W3V10R11] | 256 µM | 8 µM | 2 µM | 128 µM | 256 µM | 8 µM | 2 µM | 2 µM | 4 µM | 2 µM | 8 µM | 16 µM | 8 µM | 32 µM | 128 µM | 32 µM | 2 µM | 80% | 32 µM | 19.0 µM | MIC, Trypsin ([2]; ATCC25922, 1 h): >256 µM; MIC ([11]; CMCC54004, 24 h): 2 µM; MIC [14]: 64 µM; MIC ([12]; UB1005, 24 h): 8 µM; MIC [15]: 8 µM
4 | RRFRIVVIRWLR-NH2 [R2F3W10L11] | 256 µM | 32 µM | 8 µM | 16 µM | 128 µM | 8 µM | 2 µM | 8 µM | 2 µM | 4 µM | 16 µM | 32 µM | 32 µM | 64 µM | 256 µM | 32 µM | 2 µM | 71% | 32 µM | 32.0 µM | MIC, Trypsin ([2]; ATCC25922, 1 h): >256 µM; MIC ([11]; CMCC54004, 24 h): 16 µM; MIC [14]: 64 µM; MIC ([12]; UB1005, 24 h): 16 µM; MIC [15]: 8 µM
5 | RRWRIVVIRWRR-NH2 [R2W3W10R11] | 128 µM | 8 µM | 4 µM | 32 µM | 128 µM | 2 µM | 2 µM | 2 µM | 2 µM | 2 µM | 4 µM | 64 µM | 32 µM | 64 µM | 128 µM | 64 µM | 2 µM | 77% | 64 µM | 30.2 µM | MIC, Trypsin [2, 17]: >256 µM; MIC ([11]; CMCC54004, 24 h): 1 µM; MIC [14]: 256 µM; MIC ([12]; UB1005, 24 h): 16 µM; MIC [15]: 8 µM
6 | RWKRIVVIRKRR-NH2 [W2K3K10R11] | – | 16 µM | 4 µM | 16 µM | 8 µM | 4 µM | 4 µM | 4 µM | 4 µM | 4 µM | 8 µM | – | 256 µM | 256 µM | – | 256 µM | 4 µM | 83% | – | 170.0 µM | MIC [1, 16]: >256 µM; MIC, Trypsin [2, 17]: >256 µM; MIC ([3]; Bacillus cereus CMCC6303, 1 × 10^6 CFU/mL, 24 h, 37°C, triplicate): 128 µM; MIC ([10]; Salmonella typhimurium ATCC14028, 1 × 10^6 CFU/mL, 24 h, 37°C, triplicate): 128 µM; MIC ([11]; Listeria monocytogenes CMCC54004, 1 × 10^6 CFU/mL, 24 h, 37°C, triplicate): 128 µM; MIC ([12]; UB1005, 24 h): 256 µM; MIC [6, 18]: >256 µM
7 | RWRRIVVIRVRR-NH2 [W2R3V10R11] | 64 µM | 4 µM | 2 µM | 32 µM | 8 µM | 8 µM | 2 µM | 2 µM | 4 µM | 2 µM | 4 µM | 64 µM | 32 µM | 32 µM | 256 µM | 16 µM | 2 µM | 80% | 32 µM | 24.0 µM | MIC, Trypsin ([2]; ATCC25922, 1 h): >256 µM; MIC ([11]; CMCC54004, 24 h): 2 µM; MIC [14]: 128 µM; MIC ([12]; UB1005, 24 h): 16 µM; MIC [15]: 8 µM
8 | melittin [reference compound] | – | – | – | – | – | – | – | – | – | – | – | – | – | – | – | – | – | – | – | – | Cytotoxicity ([9]; at 16 μM): 100%
